{"source": "ChEMBL document CHEMBL5357080", "about": "“Redefining Neurodegenerative Treatment: Synergy of KEAP1, PROTACs, and Inflammatory Modulators” (ACS Med Chem Lett, 2024)", "target": "Bromodomain-containing protein 4 (Homo sapiens) (UniProt O60885)", "assay": "Induction of degradation of BRD4 in human MDA-MB-468 cells at 0.01 uM measured after 24 to 48 hrs by densitometry analysis relative to control", "format": "cell-based", "conditions": "time lower […], time upper […]", "data": [{"smiles": "Cc1sc2c(c1C)C(c1ccc(Cl)cc1)=N[C@@H](CC(=O)NCC(=O)NCCn1nnc(COc3ccc(Cl)c4c3[C@@H](CN3CC5(CC5)CC3=O)N(C(=O)[C@@H]3CCCC[C@]3(C)C(=O)O)CC4)c1C)c1nnc(C)n1-2", "values": [{"measurement": "Activity", "result": 75, "unit": "%"}]}]}
